Data from US8778975B2, “Helicobacter pylori eradicating agent having inhibitory activity on gastric acid secretion” (Link Geonomics, Inc., priority 2006, dated 2014).
Converted amounts (≈) assume the structure as drawn. “And” between values parts separate entries of the source, which are not always exact repeats. Identical values can stand only once. Like-named read-outs stand apart in the source and are kept apart here.

How the values were obtained:
[1] = system: Staphylococcus aureus, MRSA (ATCC 33591); test: Antibacterial test (MIC), Gram-positive bacteria; assay type: cell-based; conditions: read-out: MIC
Excerpt: (§1) As for the Gram-negative bacteria, E. coli (ATCC 10536, ATCC 25922), Klebsiella pneumonia (ATCC 10031), Proteus vulgaris (ATCC 13315), Pseudomonas aeruginosa (ATCC 9027), and Salmonella typhimurium (ATCC 13311) were used, and as for the Gram-positive bacteria, Staphylococcus aureus, MRSA (ATCC 33591), Staphylococcus epidermidis (ATCC 12228), Streptococcus pneumonia (ATCC 6301), Mycobacterium ranae (ATCC 110), and Enterococcus faecalis (VRE, ATCC 51575) were used. The various bacteria were cultured at 37° C. for 20 to 48 hours by conventional methods, and the minimum growth inhibitory concentration (MIC, μg/ml) was determined. Each of the specimens was dissolved in a 1% DMSO solution. Furthermore, amoxicillin, clarithromycin and gentamycin were used as control drugs of antibacterial substance.

[2] = system: Enterococcus faecalis (VRE, ATCC 51575); test: Antibacterial test (MIC), Gram-positive bacteria; assay type: cell-based
Excerpt: as §1

[3] = system: Streptococcus pneumonia (ATCC 6301); test: Antibacterial test (MIC), Gram-positive bacteria; assay type: cell-based; conditions: Streptococcus pneumoniae, ATCC6301
Excerpt: as §1

[4] = system: Mycobacterium ranae (ATCC 110); test: Antibacterial test (MIC), Gram-positive bacteria; assay type: cell-based; conditions: ATCC110, read-out: MIC
Excerpt: as §1

[5] = system: Staphylococcus epidermidis (ATCC 12228); test: Antibacterial test (MIC), Gram-positive bacteria; assay type: cell-based; conditions: ATCC12228, read-out: MIC
Excerpt: as §1

[6] = system: clinically separated clarithromycin-resistant strains and amoxicillin-insensitive strains of Helicobacter pylori; test: Antibacterial potency (MIC) against clarithromycin-resistant and amoxicillin-insensitive strains, Pharmacological Test Example 3; assay type: cell-based; conditions: Helicobacter pylori, read-out: MIC
Procedure: A test was conducted on the antibacterial potency of the compounds of the present invention against the clarithromycin-resistant strains and amoxicillin-insensitive strains of the bacterium Helicobacter pylori.
A test was conducted on the antibacterial potency of the compounds of the present invention, using clinically separated clarithromycin-resistant strains and amoxicillin-insensitive strains of the bacterium Helicobacter pylori. For the respective strains, in vitro tests were performed in Columbia agar medium. Each of the specimens was dissolved in a 1% DMSO solution. The bacteria were cultured at 37° C. and pH 7.0 for 3 days, and on the 4th day, the minimum growth inhibitory concentration (MIC, μg/ml) was determined.

[7] = system: Helicobacter pylori standard strain ATCC 43504; test: Antibacterial potency test (MIC), Columbia agar medium, Pharmacological Test Example 1; assay type: cell-based
Procedure: A test was conducted to see whether there is a difference in the anti-Helicobacter pylori activity depending on the number of carbon atoms of the linear alkyl group for a substituent at the 4-position of the pyridine ring.
For the bacterium Helicobacter pylori, a standard strain ATCC 43504 was used to perform in vitro tests in Columbia agar medium. Each of the specimens was dissolved in a 1% DMSO solution, and the bacteria were cultured at 37° C. and pH 7.0 for 3 days. On the 4th day, the minimum growth inhibitory concentration (MIC, μg/ml) was determined.

[8] = system: Helicobacter pylori bacteria (ATCC 43504); test: Antiulcer action and bacteria eradicating action in Helicobacter pylori-infected Mongolian gerbils; assay type: in vivo; conditions: for Number of Bacteria (average) (log CFU): gastric mucosa; for responders at 30 mg/kg / responders at 10 mg/kg: Helicobacter pylori
Procedure: Mongolian gerbils were experimentally infected with Helicobacter pylori bacteria, and the antiulcer action and the Helicobacter pylori bacteria eradicating action of the compounds of the present invention were tested.
Male Mongolian gerbils (30 to 40 g), five animals in each group, were orally inoculated with Helicobacter pylori bacteria (ATCC 43504) at 1.6×10^7 CFU/0.5 ml/mouse, and bred for one week, and then drug was administered two times a day for two weeks. Thereafter, the […] were bred for three weeks, and then the rats were fasted for 18 hours and subjected to abdominal section, followed by autopsy. The severity of gastric ulcer, the number of Helicobacter pylori bacteria in the gastric mucosa, and the antibody titer were measured.

[9] = system: Helicobacter pylori standard strains ATCC 43504, ATCC 43629, ATCC 43570 and clinically separated strains; test: Anti-Helicobacter pylori activity (MIC), standard and clinically separated strains, Pharmacological Test Example 2; assay type: cell-based
Procedure: For the bacterium Helicobacter pylori, standard strains ATCC 43504, ATCC 43629 and ATCC 43570 were used to perform in vitro tests in Columbia agar medium. The bacteria were cultured at 37° C. and pH 7.0 for 3 days. On the 4th day, the minimum growth inhibitory concentration (MIC, μg/ml) was determined. Each of the specimens was dissolved in a 1% DMSO solution. Furthermore, amoxicillin and clarithromycin were used as control drugs of antibacterial substance. Further, the compound described in the article of Thomas C. Kuehler (J. Med.

[10] = system: Escherichia coli (ATCC 10536); test: Antibacterial test (MIC), Gram-negative bacteria; assay type: cell-based; conditions: ATCC10536, read-out: MIC
Excerpt: as §1

[11] = system: Salmonella typhimurium (ATCC 13311); test: Antibacterial test (MIC), Gram-negative bacteria; assay type: cell-based; conditions: Salmonella enterica, read-out: MIC
Excerpt: as §1

[12] = system: Pseudomonas aeruginosa (ATCC 9027); test: Antibacterial test (MIC), Gram-negative bacteria; assay type: cell-based; conditions: ATCC9027, read-out: MIC
Excerpt: as §1

[13] = system: Escherichia coli (ATCC 25922); test: Antibacterial test (MIC), Gram-negative bacteria; assay type: cell-based; conditions: ATCC25922, read-out: MIC
Excerpt: as §1

[14] = system: Klebsiella pneumonia (ATCC 10031); test: Antibacterial test (MIC), Gram-negative bacteria; assay type: cell-based; conditions: Klebsiella pneumoniae, ATCC10031, read-out: MIC
Excerpt: as §1

[15] = system: Proteus vulgaris (ATCC 13315); test: Antibacterial test (MIC), Gram-negative bacteria; assay type: cell-based; conditions: ATCC13315, read-out: MIC
Excerpt: as §1

[16] = ATCC43504, 72 h, ATCC 43504, 37° C., pH 7.0, 3 days, read-out: MIC
[17] = ATCC43504, Table 8 summary, strain not stated, read-out: Anti-HP activity (MIC: μg/mL)
[18] = 30 mg/kg, two times a day for two weeks
[19] = ATCC43504, 336 h, 30 mg/kg, two times a day for two weeks, read-out: Eradication rate (%)
[20] = ATCC43504, Table 8, amount of administration (mg) 30, read-out: HP eradication based on Mongolian gerbil infection model: Eradication rate (%)
[21] = Clinically separated strain PT1045482
[22] = Clinically separated strain PT1045483
[23] = Clinically separated strain PT1045484

Compound | MIC [1] [µg/mL] | MIC [2] [µg/mL] | MIC [3] [µg/mL] | MIC [4] [µg/mL] | MIC [5] [µg/mL] | MIC ([6]; AMO-insensitive strain NO. 1) [µg/mL] | MIC ([6]; AMO-insensitive strain NO. 2) [µg/mL] | MIC ([6]; AMO-insensitive strain NO. 3) [µg/mL] | MIC ([6]; AMO-insensitive strain NO. 4) [µg/mL] | MIC ([6]; CAM-resistant strain NO. 1) [µg/mL] | MIC ([6]; CAM-resistant strain NO. 2) [µg/mL] | MIC ([6]; CAM-resistant strain NO. 3) [µg/mL] | MIC ([6]; CAM-resistant strain NO. 4) [µg/mL] | MIC [7, 16] [µg/mL] | MIC [7, 17] [µg/mL] | Antibody titer (average) ([8]; 30 mg/kg) | Number of Bacteria (average) (log CFU) ([8]; 30 mg/kg) | Number of Ulcers discovered [8, 18] | responders at 30 mg/kg [8, 19] [%] | MIC [9, 21] [µg/mL] | also measured
CCCCCCOc1ccnc(CSc2nc3ccccc3[nH]2)c1C [Example 2, 2-[(4-n-hexyloxy-3-methylpyridin-2-yl)-methylthio]-1H-benzimidazole] | > 100 | > 100 | > 100 | > 100 | > 100 | 0.06 (≈ 0.169 µM) | 0.12 (≈ 0.338 µM) | 0.12 (≈ 0.338 µM) | 0.12 (≈ 0.338 µM) | 0.06 (≈ 0.169 µM) | 0.06 (≈ 0.169 µM) | 0.06 (≈ 0.169 µM) | 0.06 (≈ 0.169 µM) | 0.1 (≈ 0.281 µM) | 0.1 (≈ 0.281 µM) | 0.17 | <3 | 0/5 | 100 | 0.1 (≈ 0.281 µM) | responders at 30 mg/kg [8, 20]: 100%; MIC [9, 22]: 0.1 µg/mL (≈ 0.281 µM); MIC [9, 23]: 0.1 µg/mL (≈ 0.281 µM); MIC ([9]; Standard strain ATCC 43504): 0.1 µg/mL (≈ 0.281 µM); MIC ([9]; Standard strain ATCC 43570): 0.03 µg/mL (≈ 0.0844 µM); MIC ([9]; Standard strain ATCC 43629): 0.1 µg/mL (≈ 0.281 µM); MIC [10]: > 100 µg/mL; MIC [11]: > 100 µg/mL; MIC [12]: > 100 µg/mL; MIC [13]: > 100 µg/mL; MIC [14]: > 100 µg/mL; MIC [15]: > 100 µg/mL
CCCCCCCOc1ccnc(CSc2nc3ccccc3[nH]2)c1C [Example 3, 2-[(4-n-heptyloxy-3-methylpyridin-2-yl)-methylthio]-1H-benzimidazole] | > 100 | > 100 | > 100 | > 100 | > 100 | 0.12 (≈ 0.325 µM) | 0.12 (≈ 0.325 µM) | 0.12 (≈ 0.325 µM) | 0.25 (≈ 0.677 µM) | 0.1 (≈ 0.271 µM) | 0.1 (≈ 0.271 µM) | 0.1 (≈ 0.271 µM) | 0.1 (≈ 0.271 µM) | 0.1 (≈ 0.271 µM) | 0.1 (≈ 0.271 µM) | 0.22 | <3 | 0/5 | 100 | 0.1 (≈ 0.271 µM) | responders at 30 mg/kg [8, 20]: 100%; MIC [9, 22]: 0.1 µg/mL (≈ 0.271 µM); MIC [9, 23]: 0.1 µg/mL (≈ 0.271 µM); MIC ([9]; Standard strain ATCC 43504): 0.1 µg/mL (≈ 0.271 µM); MIC ([9]; Standard strain ATCC 43570): 0.1 µg/mL (≈ 0.271 µM); MIC ([9]; Standard strain ATCC 43629): 0.1 µg/mL (≈ 0.271 µM); MIC [10]: > 100 µg/mL; MIC [11]: > 100 µg/mL; MIC [12]: > 100 µg/mL; MIC [13]: > 100 µg/mL; MIC [14]: > 100 µg/mL; MIC [15]: > 100 µg/mL
CCCCCOc1ccnc(CSc2nc3ccccc3[nH]2)c1C [Example 1, 2-[(4-n-pentyloxy-3-methylpyridin-2-yl)-methylthio]-1H-benzimidazole] | > 100 | > 100 | > 100 | > 100 | > 100 | 0.06 (≈ 0.176 µM) | 0.06 (≈ 0.176 µM) | 0.06 (≈ 0.176 µM) | 0.06 (≈ 0.176 µM) | 0.06 (≈ 0.176 µM) | 0.06 (≈ 0.176 µM) | 0.06 (≈ 0.176 µM) | 0.06 (≈ 0.176 µM) | 0.1 (≈ 0.293 µM) | 0.1 (≈ 0.293 µM) | 0.05 | <3 | 0/5 | 100 | 0.1 (≈ 0.293 µM) | Antibody titer (average) ([8]; 10 mg/kg): 0.07; Number of Bacteria (average) (log CFU) ([8]; 10 mg/kg): <3 log CFU; Number of Ulcers discovered ([8]; 10 mg/kg, two times a day for two weeks): inhibited generation of ulcer and 0/5; responders at 10 mg/kg ([8]; ATCC43504, 336 h, 10 mg/kg, two times a day for two weeks, read-out: Eradication rate (%)): 100%; responders at 10 mg/kg ([8]; ATCC43504, Table 8, amount of administration (mg) 10, read-out: HP eradication based on Mongolian gerbil infection model: Eradication rate (%)): 100%; MIC [9, 22]: 0.06 µg/mL (≈ 0.176 µM); MIC [9, 23]: 0.06 µg/mL (≈ 0.176 µM); MIC ([9]; Standard strain ATCC 43504): 0.1 µg/mL (≈ 0.293 µM); MIC ([9]; Standard strain ATCC 43570): < 0.015 µg/mL; MIC ([9]; Standard strain ATCC 43629): 0.06 µg/mL (≈ 0.176 µM); MIC [10]: > 100 µg/mL; MIC [11]: > 100 µg/mL; MIC [12]: > 100 µg/mL; MIC [13]: > 100 µg/mL; MIC [14]: > 100 µg/mL; MIC [15]: > 100 µg/mL
